Assay results from US10023570B2 (Array BioPharma, Inc., priority 2015, dated 2018).
One block for each molecule: values may come before it.

Target: human KDR protein in HEK-293 cells (Homo sapiens (Human), UniProt P35968)
Assay: KDR Cell Assay (phospho-KDR in HEK-293 cells expressing inducible KDR)
Type: cell-based
Conditions: pKDR Cell HEK 10% FBS IC50, HEK-293 cells expressing inducible KDR, VEGF stimulated, 10% FBS
Method: The cellular potency of a compound inhibiting KDR kinase was determined in HEK-293 cells expressing an inducible human KDR protein. […] The cells were incubated for 1 hour with test compound in DMEM at a final DMSO concentration of 0.25%. […] The media was aspirated and 35 μL of a 1× lysis buffer was added. […] The lysate was stored at −80° C. until ready for assay. Phospho-KDR was measured using a phospho-KDR kit (Catalog #K151BOC) purchased from Meso Scale Diagnostics (Rockville, Md.) according to the manufacturer's instructions. All values are expressed as percent of percent of control (POC). The POC values were fitted to a 4 parameter logistic curve fit and the IC50 value is point where the curve crosses 50 POC.

Chain of human KDR protein in HEK-293 cells (P35968 20-1356): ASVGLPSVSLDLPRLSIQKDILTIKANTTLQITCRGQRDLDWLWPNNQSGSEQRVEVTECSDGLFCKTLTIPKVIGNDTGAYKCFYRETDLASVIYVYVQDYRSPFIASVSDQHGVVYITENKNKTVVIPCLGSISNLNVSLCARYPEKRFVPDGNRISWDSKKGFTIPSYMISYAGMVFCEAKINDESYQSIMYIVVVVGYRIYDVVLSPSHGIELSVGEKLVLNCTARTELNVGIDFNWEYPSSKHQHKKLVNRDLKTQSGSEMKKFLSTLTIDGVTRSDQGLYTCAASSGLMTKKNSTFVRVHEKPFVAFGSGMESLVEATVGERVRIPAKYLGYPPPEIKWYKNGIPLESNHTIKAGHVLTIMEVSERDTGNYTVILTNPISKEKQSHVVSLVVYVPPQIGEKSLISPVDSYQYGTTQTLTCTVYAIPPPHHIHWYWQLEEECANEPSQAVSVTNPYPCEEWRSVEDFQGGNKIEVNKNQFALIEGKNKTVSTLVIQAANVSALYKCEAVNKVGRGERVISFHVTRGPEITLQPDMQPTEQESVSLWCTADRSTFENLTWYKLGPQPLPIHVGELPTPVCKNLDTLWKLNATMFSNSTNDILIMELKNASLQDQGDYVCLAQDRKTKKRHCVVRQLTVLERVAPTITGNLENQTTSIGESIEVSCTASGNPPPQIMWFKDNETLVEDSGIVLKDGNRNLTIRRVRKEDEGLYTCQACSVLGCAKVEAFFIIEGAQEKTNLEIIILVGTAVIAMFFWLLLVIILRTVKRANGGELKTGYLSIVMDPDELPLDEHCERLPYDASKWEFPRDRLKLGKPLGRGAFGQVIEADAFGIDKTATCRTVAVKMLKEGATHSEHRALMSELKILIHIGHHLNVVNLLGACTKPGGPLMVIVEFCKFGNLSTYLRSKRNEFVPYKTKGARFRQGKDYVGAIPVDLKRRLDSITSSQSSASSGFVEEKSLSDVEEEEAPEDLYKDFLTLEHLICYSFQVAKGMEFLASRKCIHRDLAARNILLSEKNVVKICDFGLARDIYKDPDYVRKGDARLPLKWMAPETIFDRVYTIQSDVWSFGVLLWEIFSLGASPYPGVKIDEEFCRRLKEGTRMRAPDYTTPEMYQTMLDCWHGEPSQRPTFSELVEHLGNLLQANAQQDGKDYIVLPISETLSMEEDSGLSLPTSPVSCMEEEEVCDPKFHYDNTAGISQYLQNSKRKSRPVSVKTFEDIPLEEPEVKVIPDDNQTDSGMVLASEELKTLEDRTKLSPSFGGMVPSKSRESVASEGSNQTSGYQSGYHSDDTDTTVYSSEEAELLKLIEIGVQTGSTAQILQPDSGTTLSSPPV

IC50: 439 nM
SMILES: Cn1cc(-c2cc(-c3ccc(N4CCN(C(=O)[C@H]5CCCO5)CC4)nc3)c3c(C#N)cnn3c2)cn1 [Example 58, (R)-6-(1-methyl-1H-pyrazol-4-yl)-4-(6-(4-(tetrahydrofuran-2-carbonyl)piperazin-1-yl)pyridin-3-yl)pyrazolo[1,5-a]pyridine-3-carbonitrile]

IC50: 376 nM
SMILES: Cn1cc(-c2cc(-c3ccc(N4CCN(C(=O)[C@@H]5CCCO5)CC4)nc3)c3c(C#N)cnn3c2)cn1 [Example 60, (S)-6-(1-methyl-1H-pyrazol-4-yl)-4-(6-(4-(tetrahydrofuran-2-carbonyl)piperazin-1-yl)pyridin-3-yl)pyrazolo[1,5-a]pyridine-3-carbonitrile]

IC50: 1300 nM
SMILES: Cn1cc(-c2cc(-c3ccc(N4CCN(C(=O)CC5CCOC5)CC4)nc3)c3c(C#N)cnn3c2)cn1 (centres unmarked) [Example 62, 6-(1-methyl-1H-pyrazol-4-yl)-4-(6-(4-(2-(tetrahydrofuran-3-yl)acetyl)piperazin-1-yl)pyridin-3-yl)pyrazolo[1,5-a]pyridine-3-carbonitrile]

IC50: 789 nM
SMILES: Cn1cc(-c2cc(-c3ccc(N4CCN(C(=O)C5CC5)CC4)nc3)c3c(C#N)cnn3c2)cn1 [Example 68, 4-(6-(4-(cyclopropanecarbonyl)piperazin-1-yl)pyridin-3-yl)-6-(1-methyl-1H-pyrazol-4-yl)pyrazolo[1,5-a]pyridine-3-carbonitrile]

IC50: 1350 nM
SMILES: Cn1cc(-c2cc(-c3ccc(N4CCN(C(=O)C5CCOCC5)CC4)nc3)c3c(C#N)cnn3c2)cn1 [Example 74, 6-(1-methyl-1H-pyrazol-4-yl)-4-(6-(4-(tetrahydro-2H-pyran-4-carbonyl)piperazin-1-yl)pyridin-3-yl)pyrazolo[1,5-a]pyridine-3-carbonitrile]

IC50: 1010 nM
SMILES: Cn1cc(-c2cc(-c3ccc(N4CCN(C(=O)CC5CCOCC5)CC4)nc3)c3c(C#N)cnn3c2)cn1 [Example 76, 6-(1-methyl-1H-pyrazol-4-yl)-4-(6-(4-(2-(tetrahydro-2H-pyran-4-yl)acetyl)piperazin-1-yl)pyridin-3-yl)pyrazolo[1,5-a]pyridine-3-carbonitrile]

IC50: 605 nM
SMILES: Cn1cc(-c2cc(-c3ccc(N4CCN(C(=O)CC5CC5)CC4)nc3)c3c(C#N)cnn3c2)cn1 [Example 77, 4-(6-(4-(2-cyclopropylacetyl)piperazin-1-yl)pyridin-3-yl)-6-(1-methyl-1H-pyrazol-4-yl)pyrazolo[1,5-a]pyridine-3-carbonitrile]

IC50: 762 nM
SMILES: Cn1cc(-c2cc(-c3ccc(N4CCN(C(=O)C5(O)CC5)CC4)nc3)c3c(C#N)cnn3c2)cn1 [Example 81, 4-(6-(4-(1-hydroxycyclopropane-1-carbonyl)piperazin-1-yl)pyridin-3-yl)-6-(1-methyl-1H-pyrazol-4-yl)pyrazolo[1,5-a]pyridine-3-carbonitrile]

IC50: 428 nM
SMILES: CO[C@@H](C(=O)N1CCN(c2ccc(-c3cc(-c4cnn(C)c4)cn4ncc(C#N)c34)cn2)CC1)C(C)C [Example 86, (R)-4-(6-(4-(2-methoxy-3-methylbutanoyl)piperazin-1-yl)pyridin-3-yl)-6-(1-methyl-1H-pyrazol-4-yl)pyrazolo[1,5-a]pyridine-3-carbonitrile]

IC50: 1700 nM
SMILES: Cn1cc(-c2cc(-c3ccc(N4CCN(C(=O)N5CCCCC5)CC4)nc3)c3c(C#N)cnn3c2)cn1 [Example 93, 6-(1-methyl-1H-pyrazol-4-yl)-4-(6-(4-(piperidine-1-carbonyl)piperazin-1-yl)pyridin-3-yl)pyrazolo[1,5-a]pyridine-3-carbonitrile]

More lines, now with the values behind:

SMILES: Cn1cc(-c2cc(-c3ccc(N4CCN(C(=O)Cc5ccn(C)n5)CC4)nc3)c3c(C#N)cnn3c2)cn1 [Example 42, 4-(6-(4-(2-(1-methyl-1H-pyrazol-3-yl)acetyl)piperazin-1-yl)pyridin-3-yl)-6-(1-methyl-1H-pyrazol-4-yl)pyrazolo[1,5-a]pyridine-3-carbonitrile 2,2,2-trifluoroacetate]
IC50: 502 nM

SMILES: Cn1cc(-c2cc(-c3ccc(N4CCN(C(=O)CCc5cccnc5)CC4)nc3)c3c(C#N)cnn3c2)cn1 [Example 43, 6-(1-methyl-1H-pyrazol-4-yl)-4-(6-(4-(3-(pyridin-3-yl)propanoyl)piperazin-1-yl)pyridin-3-yl)pyrazolo[1,5-a]pyridine-3-carbonitrile bis(2,2,2-trifluoroacetate)]
IC50: 653 nM

SMILES: Cn1cc(-c2cc(-c3ccc(N4CCN(C(=O)[C@H](N)c5ccccc5)CC4)nc3)c3c(C#N)cnn3c2)cn1 [Example 48, (R)-4-(6-(4-(2-amino-2-phenylacetyl)piperazin-1-yl)pyridin-3-yl)-6-(1-methyl-1H-pyrazol-4-yl)pyrazolo[1,5-a]pyridine-3-carbonitrile bis(2,2,2-trifluoroacetate)]
IC50: 612 nM

SMILES: Cc1cnc(C(=O)N2CCN(c3ccc(-c4cc(-c5cnn(C)c5)cn5ncc(C#N)c45)cn3)CC2)cn1 [Example 49, 6-(1-methyl-1H-pyrazol-4-yl)-4-(6-(4-(5-methylpyrazine-2-carbonyl)piperazin-1-yl)pyridin-3-yl)pyrazolo[1,5-a]pyridine-3-carbonitrile bis(2,2,2-trifluoroacetate)]
IC50: 237 nM

SMILES: Cn1cc(-c2cc(-c3ccc(N4CCN(C(=O)[C@@H](N)c5ccccc5)CC4)nc3)c3c(C#N)cnn3c2)cn1 [Example 50, (S)-4-(6-(4-(2-amino-2-phenylacetyl)piperazin-1-yl)pyridin-3-yl)-6-(1-methyl-1H-pyrazol-4-yl)pyrazolo[1,5-a]pyridine-3-carbonitrile bis(2,2,2-trifluoroacetate)]
IC50: 1190 nM

SMILES: Cn1cc(-c2cc(-c3ccc(N4CCN(C(=O)c5c(F)cccc5F)CC4)nc3)c3c(C#N)cnn3c2)cn1 [Example 51, 4-(6-(4-(2,6-difluorobenzoyl)piperazin-1-yl)pyridin-3-yl)-6-(1-methyl-1H-pyrazol-4-yl)pyrazolo[1,5-a]pyridine-3-carbonitrile 2,2,2-trifluoroacetate]
IC50: 267 nM

SMILES: Cn1cc(-c2cc(-c3ccc(N4CCN(C(=O)c5ccccc5)CC4)nc3)c3c(C#N)cnn3c2)cn1 [Example 69, 4-(6-(4-benzoylpiperazin-1-yl)pyridin-3-yl)-6-(1-methyl-1H-pyrazol-4-yl)pyrazolo[1,5-a]pyridine-3-carbonitrile]
IC50: 117 nM

SMILES: Cn1cc(-c2cc(-c3ccc(N4CCN(C(=O)Cc5cccnc5)CC4)nc3)c3c(C#N)cnn3c2)cn1 [Example 71, 6-(1-methyl-1H-pyrazol-4-yl)-4-(6-(4-(2-(pyridin-3-yl)acetyl)piperazin-1-yl)pyridin-3-yl)pyrazolo[1,5-a]pyridine-3-carbonitrile]
IC50: 503 nM

SMILES: Cn1cc(-c2cc(-c3ccc(N4CCN(C(=O)c5ccccn5)CC4)nc3)c3c(C#N)cnn3c2)cn1 [Example 72, 6-(1-methyl-1H-pyrazol-4-yl)-4-(6-(4-picolinoylpiperazin-1-yl)pyridin-3-yl)pyrazolo[1,5-a]pyridine-3-carbonitrile]
IC50: 99.9 nM

SMILES: Cn1cc(-c2cc(-c3ccc(N4CCN(C(=O)c5cccnc5)CC4)nc3)c3c(C#N)cnn3c2)cn1 [Example 73, 6-(1-methyl-1H-pyrazol-4-yl)-4-(6-(4-nicotinoylpiperazin-1-yl)pyridin-3-yl)pyrazolo[1,5-a]pyridine-3-carbonitrile]
IC50: 296 nM

SMILES: Cn1cc(-c2cc(-c3ccc(N4CCN(C(=O)Cc5ccccc5)CC4)nc3)c3c(C#N)cnn3c2)cn1 [Example 78, 6-(1-methyl-1H-pyrazol-4-yl)-4-(6-(4-(2-phenylacetyl)piperazin-1-yl)pyridin-3-yl)pyrazolo[1,5-a]pyridine-3-carbonitrile]
IC50: 80.6 nM

SMILES: Cn1cc(-c2cc(-c3ccc(N4CCN(C(=O)[C@H](O)c5ccccc5)CC4)nc3)c3c(C#N)cnn3c2)cn1 [Example 82, (R)-4-(6-(4-(2-hydroxy-2-phenylacetyl)piperazin-1-yl)pyridin-3-yl)-6-(1-methyl-1H-pyrazol-4-yl)pyrazolo[1,5-a]pyridine-3-carbonitrile]
IC50: 91.2 nM

SMILES: CO[C@@H](C(=O)N1CCN(c2ccc(-c3cc(-c4cnn(C)c4)cn4ncc(C#N)c34)cn2)CC1)c1ccccc1 [Example 83]
IC50: 135 nM

SMILES: CO[C@H](C(=O)N1CCN(c2ccc(-c3cc(-c4cnn(C)c4)cn4ncc(C#N)c34)cn2)CC1)c1ccccc1 [Example 84]
IC50: 1260 nM

SMILES: Cn1cc(-c2cc(-c3ccc(N4CCN(S(=O)(=O)CC5CC5)CC4)nc3)c3c(C#N)cnn3c2)cn1 [Example 87, 4-(6-(4-((cyclopropylmethyl)sulfonyl)piperazin-1-yl)pyridin-3-yl)-6-(1-methyl-1H-pyrazol-4-yl)pyrazolo[1,5-a]pyridine-3-carbonitrile]
IC50: 5.8 nM

SMILES: Cn1cc(-c2cc(-c3ccc(N4CCN(S(C)(=O)=O)CC4)nc3)c3c(C#N)cnn3c2)cn1 [Example 88, 6-(1-methyl-1H-pyrazol-4-yl)-4-(6-(4-(methylsulfonyl)piperazin-1-yl)pyridin-3-yl)pyrazolo[1,5-a]pyridine-3-carbonitrile]
IC50: 195 nM

SMILES: Cn1cc(-c2cc(-c3ccc(N4CCN(S(=O)(=O)CC(C)(C)C)CC4)nc3)c3c(C#N)cnn3c2)cn1 [Example 89]
IC50: 189 nM

SMILES: CC(C)CS(=O)(=O)N1CCN(c2ccc(-c3cc(-c4cnn(C)c4)cn4ncc(C#N)c34)cn2)CC1 [Example 90, 4-(6-(4-(isobutylsulfonyl)piperazin-1-yl)pyridin-3-yl)-6-(1-methyl-1H-pyrazol-4-yl)pyrazolo[1,5-a]pyridine-3-carbonitrile]
IC50: 24.1 nM

SMILES: Cn1cc(-c2cc(-c3ccc(N4CCN(S(=O)(=O)C5CCOCC5)CC4)nc3)c3c(C#N)cnn3c2)cn1 [Example 91, 6-(1-methyl-1H-pyrazol-4-yl)-4-(6-(4-((tetrahydro-2H-pyran-4-yl)sulfonyl)piperazin-1-yl)pyridin-3-yl)pyrazolo[1,5-a]pyridine-3-carbonitrile]
IC50: 60.1 nM
